According to publication PMC8193046, “Scaffold fragmentation and substructure hopping reveal potential, robustness, and limits of computer-aided pattern analysis (C@PA)” (Computational and Structural Biotechnology Journal, 2021):

What was measured:
Assay type in all cases: cell-based
ABCC1 = target: T1, ABCC1 (Homo sapiens, UniProt P33527); assay: calcein AM fluorescence accumulation assay, ABCC1-overexpressing H69AR cells; conditions: for activity against ABCC1 in preliminary screening: screened at 10 µM, active = at least 20% (+SEM) of effect of 10 µM compound 26
T1 construct: ABCC1-overexpressing H69AR (60,000 cells/well) cells were added; host or cells: H69AR
Description: (§1) Compounds 16–25 were screened at 10 µM in calcein AM (ABCB1 and ABCC1) as well as pheophorbide A (ABCG2) fluorescence accumulation assays using either ABCB1-overexpressing A2780/ADR, ABCC1-overexpressing H69AR, or ABCG2-overexpressing MDCK II BCRP cells, respectively, as reported earlier, [43], [45], [67], [101]. Calcein AM and pheophorbide A are substrates of ABCB1 and ABCC1 as well as ABCG2, respectively, which passively diffuse into the used cells and become extruded by the corresponding ABC transporter. Inhibition of the respective transporter results in the accumulation of these substrates. Calcein AM is subsequently cleaved by intracellular esterases to the fluorescent calcein, while pheophorbide A is already fluorescent. Intracellular fluorescence was determined via microplate reader (calcein AM; ABCB1 and ABCC1) and flow cytometry (pheophorbide A; ABCG2), respectively. Compounds 2 (Fig. 1) and 26–27 (Fig. 5) were used as reference inhibitors against ABCB1, ABCC1, and ABCG2, respectively, as reported before, [101]. Fig. 7 provides the screening results for ABCB1 (A), ABCC1 (B), and ABCG2 (C).
(§2) The ABCB1-overexpressing A2780/ADR cells were delivered by European Collection of Animal Cell Culture (ECACC, no. 93112520) and cultivated using RPMI-1640 medium (PAN-Biotech GmbH, Aidenbach, Germany) complemented with fetal bovine serum (FCS; 10%; PAN-Biotech GmbH, Aidenbach, Germany), streptomycin (50 µg/µL; PAN-Biotech GmbH, Aidenbach, Germany), penicillin G (50 U/mL; PAN-Biotech GmbH, Aidenbach, Germany), as well as L-glutamine (2 mM; PAN-Biotech GmbH, Aidenbach, Germany). The ABCC1-overexpressing H69AR cells were provided by American Type Culture Collection (ATCC CRL-11351), which were cultured with RPMI-1640 medium to which FCS (20%), streptomycin (50 µg/µL), penicillin G (50 U/mL), as well as L-glutamine (2 mM) were added. Dr. A. Schinkel (The Netherlands Cancer Institute, Amsterdam, The Netherlands) generously provided the ABCG2-overexpressing MDCK II BCRP cells, which were cultivated in Dulbecco's modified eagle medium (DMEM; Sigma Life Science, Steinheim, Germany) complemented with FCS (10%), streptomycin (50 µg/µL), penicillin G (50 U/mL), as well as L-glutamine (2 mM). […]
(§3) The inhibitory activity against ABCB1 and ABCC1 was evaluated in a calcein AM assay as reported earlier, [67], [101]. […] The incubation period at 37 °C under 5% CO2-humidified atmosphere lasted 30 min before 20 µL of a 3.125 µM calcein AM was added to each well, subsequently followed by measurement of fluorescence increase at an excitation wavelength of 485 nm and an emission wave length of 520 nm in 60 sec intervals for 1 h in either POLARstar and FLUOstar Optima microplate readers (BMG Labtech, software versions 2.00R2/2.20 and 4.11-0; Offenburg, Germany).

ABCB1 = target: T2, ABCB1 (Homo sapiens, UniProt P08183); assay: calcein AM fluorescence accumulation assay, ABCB1-overexpressing A2780/ADR cells; conditions: for activity against ABCB1 in preliminary screening: screened at 10 µM, active = at least 20% (+SEM) of effect of 10 µM compound 2
T2 construct: ABCB1-overexpressing A2780/ADR (30,000 cells/well); host or cells: A2780/ADR
Description: as §1
as §2, with “mM). The cell lines were stored in a mixture of 90% cell culture medium and 10% DMSO under liquid nitrogen, while cultivation was performed at 37 °C under 5% CO2-humidified atmosphere. After a confluence of 90% was reached, the cells were harvested using a 0.05%/0.02% trypsin-EDTA solution (PAN-Biotech GmbH, Aidenbach, Germany).” for “mM).”
as §3

ABCG2 = target: T3, ABCG2 (Homo sapiens, UniProt Q9UNQ0); assay: pheophorbide A fluorescence accumulation assay, ABCG2-overexpressing MDCK II BCRP cells
T3 construct: host or cells: MDCK II BCRP
T3 sequence (Q9UNQ0 1-655): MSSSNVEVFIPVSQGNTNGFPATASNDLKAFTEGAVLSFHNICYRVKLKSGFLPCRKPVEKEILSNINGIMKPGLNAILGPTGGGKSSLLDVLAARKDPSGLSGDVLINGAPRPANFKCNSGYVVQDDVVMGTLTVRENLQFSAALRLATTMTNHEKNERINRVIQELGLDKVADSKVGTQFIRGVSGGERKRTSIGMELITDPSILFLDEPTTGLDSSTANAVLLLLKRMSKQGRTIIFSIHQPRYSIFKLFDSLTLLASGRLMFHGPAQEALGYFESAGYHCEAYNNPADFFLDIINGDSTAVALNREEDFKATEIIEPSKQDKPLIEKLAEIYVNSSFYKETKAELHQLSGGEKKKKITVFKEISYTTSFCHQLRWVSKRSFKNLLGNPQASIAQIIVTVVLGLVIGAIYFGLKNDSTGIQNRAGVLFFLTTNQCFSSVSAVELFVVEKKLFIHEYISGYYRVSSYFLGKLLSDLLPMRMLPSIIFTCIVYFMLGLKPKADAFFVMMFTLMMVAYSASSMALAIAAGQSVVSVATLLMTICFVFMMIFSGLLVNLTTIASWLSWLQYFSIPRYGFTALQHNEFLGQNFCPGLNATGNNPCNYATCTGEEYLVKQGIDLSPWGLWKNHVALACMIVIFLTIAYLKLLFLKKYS
Description: as §1, with “Fig. 7 provides the screening results for ABCB1 (A), ABCC1 (B), and ABCG2 (C).” left out
The inhibitory activity against ABCG2 was evaluated in a pheophorbide A assay as reported earlier, [67]. […] The effect values of compounds 16–25 were measured via flow cytometry [Guava easyCyte^TM HT, (Merck Millipore, Billerica, MA, USA; excitation: 488 nm; emission: 695/50 nm)] and compared to the effect value of 10 µM of compound 27.

T2 sequence (P08183 whole entry): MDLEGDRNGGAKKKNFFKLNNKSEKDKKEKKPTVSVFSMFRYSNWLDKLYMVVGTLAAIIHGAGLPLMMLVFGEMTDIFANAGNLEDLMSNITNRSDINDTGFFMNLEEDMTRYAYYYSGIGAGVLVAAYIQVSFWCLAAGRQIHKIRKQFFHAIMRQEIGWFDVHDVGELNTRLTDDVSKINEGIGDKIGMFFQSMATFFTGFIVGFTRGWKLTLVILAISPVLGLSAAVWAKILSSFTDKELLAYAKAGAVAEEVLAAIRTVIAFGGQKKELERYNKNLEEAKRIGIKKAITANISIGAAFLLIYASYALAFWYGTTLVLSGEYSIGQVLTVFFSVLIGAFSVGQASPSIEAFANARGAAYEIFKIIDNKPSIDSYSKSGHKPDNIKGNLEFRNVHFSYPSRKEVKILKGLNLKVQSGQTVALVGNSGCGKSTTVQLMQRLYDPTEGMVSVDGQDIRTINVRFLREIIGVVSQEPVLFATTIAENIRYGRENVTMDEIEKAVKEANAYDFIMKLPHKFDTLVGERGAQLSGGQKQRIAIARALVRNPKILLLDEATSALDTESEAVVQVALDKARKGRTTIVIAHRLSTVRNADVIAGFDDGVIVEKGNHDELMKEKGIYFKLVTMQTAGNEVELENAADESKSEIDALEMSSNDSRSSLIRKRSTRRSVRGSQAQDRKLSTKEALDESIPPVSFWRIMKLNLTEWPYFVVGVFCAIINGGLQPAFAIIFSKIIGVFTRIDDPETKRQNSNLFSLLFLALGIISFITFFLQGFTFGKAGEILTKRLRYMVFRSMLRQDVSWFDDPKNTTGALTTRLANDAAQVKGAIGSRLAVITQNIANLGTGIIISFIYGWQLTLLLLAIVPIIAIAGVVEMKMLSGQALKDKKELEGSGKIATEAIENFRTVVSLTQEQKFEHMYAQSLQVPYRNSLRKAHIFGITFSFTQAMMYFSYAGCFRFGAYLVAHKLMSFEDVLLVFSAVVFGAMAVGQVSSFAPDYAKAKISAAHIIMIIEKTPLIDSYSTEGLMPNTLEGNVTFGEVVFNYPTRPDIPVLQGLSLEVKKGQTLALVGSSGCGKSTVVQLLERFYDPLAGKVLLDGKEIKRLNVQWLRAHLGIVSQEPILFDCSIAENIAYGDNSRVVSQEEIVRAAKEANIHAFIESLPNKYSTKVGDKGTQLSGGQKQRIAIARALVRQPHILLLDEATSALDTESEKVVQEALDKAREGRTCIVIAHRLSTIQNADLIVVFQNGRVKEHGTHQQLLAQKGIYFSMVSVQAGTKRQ
T1 sequence (P33527 whole entry): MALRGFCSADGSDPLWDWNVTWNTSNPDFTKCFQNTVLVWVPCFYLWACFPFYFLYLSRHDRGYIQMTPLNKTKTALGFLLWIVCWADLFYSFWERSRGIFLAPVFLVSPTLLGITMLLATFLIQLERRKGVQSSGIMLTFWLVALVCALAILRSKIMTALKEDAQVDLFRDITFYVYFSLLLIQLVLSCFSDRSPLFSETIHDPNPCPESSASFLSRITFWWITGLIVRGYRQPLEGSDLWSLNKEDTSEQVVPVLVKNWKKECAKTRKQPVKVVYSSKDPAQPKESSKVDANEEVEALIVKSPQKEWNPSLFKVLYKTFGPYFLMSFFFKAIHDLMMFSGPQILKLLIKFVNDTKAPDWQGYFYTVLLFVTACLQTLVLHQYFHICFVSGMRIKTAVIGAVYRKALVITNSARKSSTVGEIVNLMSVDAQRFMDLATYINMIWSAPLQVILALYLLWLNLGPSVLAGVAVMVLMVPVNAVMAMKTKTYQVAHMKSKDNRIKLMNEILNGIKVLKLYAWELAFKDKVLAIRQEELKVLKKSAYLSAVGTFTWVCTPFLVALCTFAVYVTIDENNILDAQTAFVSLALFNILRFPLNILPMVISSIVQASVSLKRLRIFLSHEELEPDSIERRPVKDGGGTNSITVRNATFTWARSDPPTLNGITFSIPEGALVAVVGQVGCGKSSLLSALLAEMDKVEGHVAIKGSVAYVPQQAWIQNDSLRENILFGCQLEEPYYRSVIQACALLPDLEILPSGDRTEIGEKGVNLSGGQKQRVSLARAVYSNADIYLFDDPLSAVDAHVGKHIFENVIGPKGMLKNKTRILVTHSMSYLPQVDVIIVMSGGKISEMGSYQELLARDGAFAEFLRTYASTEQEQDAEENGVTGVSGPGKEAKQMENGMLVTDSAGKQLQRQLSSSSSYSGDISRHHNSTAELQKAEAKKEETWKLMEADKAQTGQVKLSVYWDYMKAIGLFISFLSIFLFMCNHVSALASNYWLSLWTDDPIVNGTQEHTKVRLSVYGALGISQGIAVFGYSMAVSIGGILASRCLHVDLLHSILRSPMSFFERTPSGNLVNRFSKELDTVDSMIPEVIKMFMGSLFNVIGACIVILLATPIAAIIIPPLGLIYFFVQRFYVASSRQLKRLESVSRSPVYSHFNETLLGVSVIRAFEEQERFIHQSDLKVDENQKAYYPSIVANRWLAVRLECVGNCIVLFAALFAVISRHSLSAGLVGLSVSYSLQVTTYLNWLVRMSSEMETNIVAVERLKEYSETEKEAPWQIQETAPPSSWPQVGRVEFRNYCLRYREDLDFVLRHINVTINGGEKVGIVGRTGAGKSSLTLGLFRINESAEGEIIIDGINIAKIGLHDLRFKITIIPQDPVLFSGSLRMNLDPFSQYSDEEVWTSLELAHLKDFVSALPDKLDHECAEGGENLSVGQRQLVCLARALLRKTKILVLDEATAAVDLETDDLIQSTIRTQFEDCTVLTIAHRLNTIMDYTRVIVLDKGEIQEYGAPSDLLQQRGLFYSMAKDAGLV

SMILES	activity against ABCC1 in preliminary screening (ABCC1)	activity against ABCB1 in preliminary screening (ABCB1)	other results
O=C(CN1CCN(C(=O)Cn2cnc3scc(-c4cccs4)c3c2=O)CC1)N1CCCCCC1 [compound 18, 3-(2-(4-(2-(azepan-1-yl)-2-oxoethyl)piperazin-1-yl)-2-oxoethyl)-5-(thiophen-2-yl)thieno[2,3-d]pyrimidin-4(3H)-one]	inhibited ABCC1		
O=C(NC1CCC(OC(=O)c2cncn2-c2ccc(F)cc2)CC1)c1cncn1-c1ccc(F)cc1 (centres unmarked) [compound 17, 4-(1-(4-fluorophenyl)-1H-imidazole-5-carboxamido)cyclohexyl 1-(4-fluorophenyl)-1H-imidazole-5-carboxylate]		activities against ABCB1	
O=C(c1cccn1-c1nnc(N2CCCC2)s1)N1CCN(Cc2ccc3c(c2)OCO3)CC1 [compound 19, (4-(benzo[d][1,3]dioxol-5-ylmethyl)piperazin-1-yl)(1-(5-(pyrrolidin-1-yl)-1,3,4-thiadiazol-2-yl)-1H-pyrrol-2-yl)methanone]		activities against ABCB1	
C1=CC2=NC3N4CN(CCCN5CCOCC5)CNC4=NC(c4ccccn4)N3C2C=C1 (centres unmarked) [compound 20, 4-(3-(6-(pyridin-2-yl)-4,6,7a,12a-tetrahydro-1H-benzo[4,5]imidazo[1,2-a][1,3,5]triazino[1,2-c][1,3,5]triazin-2(3H)-yl)propyl)morpholine]	did inhibit neither of the evaluated transporters	did inhibit neither of the evaluated transporters	activity against ABCG2 in preliminary screening (ABCG2; screened at 10 µM, active = at least 20% (+SEM) of effect of 10 µM compound 27): did inhibit neither of the evaluated transporters
Cc1nc(N2CCN(C(=O)C(c3ccccc3)c3ccccc3)CC2)cc(-n2ccnc2)n1 [compound 23, 1-(4-(6-(1H-imidazol-1-yl)-2-methylpyrimidin-4-yl)piperazin-1-yl)-2,2-diphenylethan-1-one]			IC50 (ABCG2; pheophorbide A assay, MDCK II BCRP cells, 100% = 10 µM reference inhibitor 27, read-out: IC50 against ABCG2): 9.27 µM; IC50 (ABCB1; calcein AM assay, A2780/ADR cells, 100% = 10 µM reference inhibitor 2, read-out: IC50 against ABCB1): 4.01 µM; IC50 (ABCC1; calcein AM assay, H69AR cells, 100% = 10 µM reference inhibitor 26, read-out: IC50 against ABCC1): 14.8 µM
Cc1onc(-c2ccccc2)c1-c1nnc(CN2CCCC2c2ccc3c(c2)OCCCO3)o1 (centres unmarked) [compound 16, 2-((2-(3,4-dihydro-2H-benzo[b][1,4]dioxepin-7-yl)pyrrolidin-1-yl)methyl)-5-(5-methyl-3-phenyl-isoxazol-4-yl)-1,3,4-oxadiazole]	inhibited ABCC1	activities against ABCB1	
